{"source": "patent US7601686B2", "about": "“Hepatitis C virus inhibitors” (Bristol-Myers Squibb Company, priority 2005, dated 2009)", "target": "T1, human liver cathepsin B (Homo sapiens, UniProt P07858)", "T1 construct": "purchased Sigma; host or cells: human liver", "assay": "Specificity assay, cathepsin B", "format": "biochemical", "conditions": "2 h enzyme-inhibitor pre-incubation; read-out: Cathepsin B activity in the specificity assays", "procedure": "The specificities of compounds of the present disclosure were determined against a variety of serine proteases: human neutrophil elastase (HNE), porcine pancreatic elastase (PPE) and human pancreatic chymotrypsin and one cysteine protease: human liver cathepsin B. In all cases a 96-well plate format protocol using colorimetric p-nitroaniline (pNA) substrate specific for each enzyme was used as described previously (PCT Patent Application No. WO 00/09543) with some modifications to the serine protease assays. All enzymes were purchased from Sigma while the substrates were from Bachem.\nEach assay included a 2 h enzyme-inhibitor pre-incubation at room temperature followed by addition of substrate and hydrolysis to ˜30% conversion as measured on a Spectramax Pro microplate reader. Compound concentrations varied from 100 to 0.4 μM depending on their potency.\nThe final conditions for each assay were the same as those described in WO 03/099274, page 623.\nThe percentage of inhibition was calculated using the formula: [1−((UVinh−UVblank)/(UVctl−UVblank))]×100\nA non-linear curve fit was applied to the inhibition-concentration data, and the 50% effective concentration (IC50) was calculated by the use of Excel XLfit software."}
{"smiles": "C=CC1CC1(NC(=O)[C@@H]1C[C@@H](NC(=O)c2cc(-c3ccccc3)nc3ccccc23)CN1C(=O)[C@@H](NC(=O)CC1CC1)C(C)(C)C)C(=O)NS(=O)(=O)C1CC1", "note": "(stereo partly shown) [Compound 9]", "values": [{"measurement": "IC50", "value": "> 100", "unit": "µM"}]}
